{"source": "patent EP4722212A1", "about": "“NOVEL COMPOUND FOR INHIBITING PROTEIN KINASES AND PHARMACEUTICAL COMPOSITION COMPRISING SAME” (Magicbullettherapeutics Co., Ltd., priority 2023, dated 2024)", "key": {"22Rv1": {"tested_on": "22Rv1", "experiment": "Cell line inhibition analysis (CCK-8, 72 h)", "type": "cell-based", "details": "Homo sapiens; 22Rv1, 72 hours; read-out: Cell growth inhibition GI50 22Rv1", "outline": "(§1)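 Cells attached one day, then treated 72 h at 37 °C with nine 3-fold compound dilutions (final 0-50 µM) or DMSO. Growth read by CCK-8 absorbance at 450 nm after 2 h, medium-blank corrected, with a day-0 plate defining 0% growth; GI50 calculated.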"}, "C4-2B": {"tested_on": "C4-2B", "experiment": "Cell line inhibition analysis (CCK-8, 72 h)", "type": "cell-based", "details": "read-out: Cell growth inhibition GI50 C4-2B", "outline": "as §1"}, "CDK4/CYCLIN D2": {"biological_target": "CDK4/CYCLIN D2 (Homo sapiens, UniProt P11802)", "sequence (P11802 whole entry, species assumed)": "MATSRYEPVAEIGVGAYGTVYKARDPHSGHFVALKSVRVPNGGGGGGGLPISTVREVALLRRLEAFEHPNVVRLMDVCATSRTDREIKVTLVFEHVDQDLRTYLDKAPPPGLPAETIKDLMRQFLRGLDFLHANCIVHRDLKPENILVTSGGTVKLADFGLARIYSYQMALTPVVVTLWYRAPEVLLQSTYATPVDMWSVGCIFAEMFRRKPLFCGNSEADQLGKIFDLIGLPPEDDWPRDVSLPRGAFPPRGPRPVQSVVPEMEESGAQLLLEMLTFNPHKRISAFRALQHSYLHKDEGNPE", "sequence (P30279 whole entry partner, species assumed)": "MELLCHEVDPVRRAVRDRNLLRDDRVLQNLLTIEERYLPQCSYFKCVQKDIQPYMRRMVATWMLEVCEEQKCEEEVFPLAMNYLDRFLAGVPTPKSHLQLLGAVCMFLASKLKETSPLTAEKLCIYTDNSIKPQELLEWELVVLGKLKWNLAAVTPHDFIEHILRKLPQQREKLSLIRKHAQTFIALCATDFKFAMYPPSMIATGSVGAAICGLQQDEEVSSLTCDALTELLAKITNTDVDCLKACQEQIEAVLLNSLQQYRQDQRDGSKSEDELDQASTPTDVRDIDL", "experiment": "Kinase panel", "type": "biochemical", "details": "CDK4/CYCLIN D2, 1 µM; read-out: residual enzyme activity", "outline": "(§2)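 Residual enzyme activity is given for kinases screened biochemically with compound at a fixed 1 µM. Kinases showing ≤40% residual activity (≥60% inhibition) were identified as inhibited.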"}, "CDK6/CYCLIN D2": {"biological_target": "CDK6/CYCLIN D2 (Homo sapiens, UniProt Q00534)", "sequence (Q00534 whole entry, species assumed)": "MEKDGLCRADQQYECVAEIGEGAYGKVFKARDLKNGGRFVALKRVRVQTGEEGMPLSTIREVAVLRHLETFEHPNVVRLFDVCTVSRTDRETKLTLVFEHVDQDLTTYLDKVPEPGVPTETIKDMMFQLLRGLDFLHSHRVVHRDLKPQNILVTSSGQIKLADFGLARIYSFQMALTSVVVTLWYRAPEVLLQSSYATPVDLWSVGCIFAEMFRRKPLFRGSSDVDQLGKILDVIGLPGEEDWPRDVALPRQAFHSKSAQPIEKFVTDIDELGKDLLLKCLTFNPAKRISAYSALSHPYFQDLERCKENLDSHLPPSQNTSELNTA", "sequence (P30279 whole entry partner, species assumed)": "as the sequence (P30279 whole entry partner, species assumed) above", "experiment": "Kinase panel", "type": "biochemical", "details": "CDK6/CYCLIN D2, 1 µM; read-out: residual enzyme activity", "outline": "as §2"}, "CDK19/cyclin C": {"biological_target": "CDK19/cyclin C (Homo sapiens, UniProt Q9BWU1)", "sequence (Q9BWU1 whole entry, species assumed)": "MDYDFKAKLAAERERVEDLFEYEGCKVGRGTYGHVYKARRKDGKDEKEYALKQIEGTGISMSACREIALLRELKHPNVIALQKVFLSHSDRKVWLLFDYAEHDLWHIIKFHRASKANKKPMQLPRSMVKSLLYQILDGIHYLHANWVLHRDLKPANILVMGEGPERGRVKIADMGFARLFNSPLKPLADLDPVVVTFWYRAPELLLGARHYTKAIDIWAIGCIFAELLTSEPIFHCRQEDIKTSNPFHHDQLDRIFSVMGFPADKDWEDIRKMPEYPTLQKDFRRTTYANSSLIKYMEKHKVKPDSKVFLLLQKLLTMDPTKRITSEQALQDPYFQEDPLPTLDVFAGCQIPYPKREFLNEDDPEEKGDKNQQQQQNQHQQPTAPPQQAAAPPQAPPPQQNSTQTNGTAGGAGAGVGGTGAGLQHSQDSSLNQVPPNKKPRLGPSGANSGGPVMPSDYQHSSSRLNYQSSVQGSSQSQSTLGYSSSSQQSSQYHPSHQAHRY", "sequence (P24863 whole entry partner, species assumed)": "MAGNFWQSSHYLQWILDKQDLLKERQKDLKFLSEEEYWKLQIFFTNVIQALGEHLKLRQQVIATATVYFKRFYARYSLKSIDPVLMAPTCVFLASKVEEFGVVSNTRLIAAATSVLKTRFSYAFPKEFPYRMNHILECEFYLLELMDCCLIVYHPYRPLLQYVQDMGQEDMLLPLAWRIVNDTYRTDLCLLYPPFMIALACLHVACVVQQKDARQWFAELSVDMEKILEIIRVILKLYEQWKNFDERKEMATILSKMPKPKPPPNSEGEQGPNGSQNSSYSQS", "experiment": "Kinase panel", "type": "biochemical", "details": "read-out: residual enzyme activity", "outline": "as §2"}, "CDK8/cyclin C": {"biological_target": "CDK8/cyclin C (Homo sapiens, UniProt P49336)", "sequence (P49336 whole entry, species assumed)": "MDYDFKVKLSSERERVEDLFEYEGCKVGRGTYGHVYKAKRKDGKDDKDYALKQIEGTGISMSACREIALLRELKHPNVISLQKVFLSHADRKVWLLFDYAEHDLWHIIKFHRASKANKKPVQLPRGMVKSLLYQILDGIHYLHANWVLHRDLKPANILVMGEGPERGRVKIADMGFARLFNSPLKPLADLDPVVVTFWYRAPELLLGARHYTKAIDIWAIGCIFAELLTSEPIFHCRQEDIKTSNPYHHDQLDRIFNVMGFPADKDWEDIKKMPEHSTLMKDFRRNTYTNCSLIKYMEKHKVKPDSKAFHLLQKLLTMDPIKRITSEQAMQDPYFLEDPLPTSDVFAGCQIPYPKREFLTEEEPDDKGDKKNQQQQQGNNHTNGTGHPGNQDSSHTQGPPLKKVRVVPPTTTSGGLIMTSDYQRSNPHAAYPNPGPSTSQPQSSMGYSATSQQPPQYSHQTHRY", "sequence (P24863 whole entry partner, species assumed)": "as the sequence (P24863 whole entry partner, species assumed) above", "experiment": "Kinase panel", "type": "biochemical", "details": "read-out: residual enzyme activity", "outline": "as §2"}, "DLK/MAP3K12": {"biological_target": "DLK/MAP3K12 (Homo sapiens, UniProt Q12852)", "sequence (Q12852 whole entry)": "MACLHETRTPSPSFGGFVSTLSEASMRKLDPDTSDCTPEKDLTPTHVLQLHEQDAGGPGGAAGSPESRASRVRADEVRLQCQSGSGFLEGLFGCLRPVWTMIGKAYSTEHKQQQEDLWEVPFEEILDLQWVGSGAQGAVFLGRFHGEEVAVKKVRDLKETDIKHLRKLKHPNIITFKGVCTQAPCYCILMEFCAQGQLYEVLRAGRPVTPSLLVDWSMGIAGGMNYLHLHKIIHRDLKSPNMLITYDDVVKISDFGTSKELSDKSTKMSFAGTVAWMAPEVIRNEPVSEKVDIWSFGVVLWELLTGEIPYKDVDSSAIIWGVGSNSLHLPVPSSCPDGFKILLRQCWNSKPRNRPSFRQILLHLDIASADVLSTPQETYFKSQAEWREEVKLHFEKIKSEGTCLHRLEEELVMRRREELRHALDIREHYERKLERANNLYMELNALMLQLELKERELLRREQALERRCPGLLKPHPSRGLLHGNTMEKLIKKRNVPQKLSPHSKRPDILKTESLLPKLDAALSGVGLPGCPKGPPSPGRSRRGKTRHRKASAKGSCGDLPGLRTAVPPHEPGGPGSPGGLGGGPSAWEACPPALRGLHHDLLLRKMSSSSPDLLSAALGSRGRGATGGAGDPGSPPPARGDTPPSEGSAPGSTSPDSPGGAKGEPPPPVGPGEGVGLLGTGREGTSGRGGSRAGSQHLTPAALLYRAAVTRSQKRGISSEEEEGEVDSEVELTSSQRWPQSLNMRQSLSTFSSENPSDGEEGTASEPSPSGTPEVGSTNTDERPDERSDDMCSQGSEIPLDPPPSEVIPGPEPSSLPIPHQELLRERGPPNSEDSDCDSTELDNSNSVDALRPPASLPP", "experiment": "Kinase panel", "type": "biochemical", "details": "DLK/MAP3K12, 1 µM; read-out: residual enzyme activity", "outline": "as §2"}, "PKMYT1": {"biological_target": "PKMYT1 (Homo sapiens, UniProt Q99640)", "sequence (Q99640 whole entry, species assumed)": "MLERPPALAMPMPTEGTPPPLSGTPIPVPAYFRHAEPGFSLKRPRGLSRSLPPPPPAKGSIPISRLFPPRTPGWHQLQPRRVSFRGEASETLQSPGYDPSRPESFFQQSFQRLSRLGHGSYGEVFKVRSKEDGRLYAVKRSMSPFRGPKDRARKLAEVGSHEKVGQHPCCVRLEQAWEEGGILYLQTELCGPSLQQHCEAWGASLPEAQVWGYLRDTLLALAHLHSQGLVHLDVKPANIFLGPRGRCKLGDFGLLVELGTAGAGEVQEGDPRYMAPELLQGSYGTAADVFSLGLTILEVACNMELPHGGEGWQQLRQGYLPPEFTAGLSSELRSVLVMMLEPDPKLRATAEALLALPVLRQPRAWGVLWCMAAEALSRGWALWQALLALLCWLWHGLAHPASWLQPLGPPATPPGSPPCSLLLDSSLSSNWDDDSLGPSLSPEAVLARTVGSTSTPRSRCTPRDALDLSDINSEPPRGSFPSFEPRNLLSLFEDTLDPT", "experiment": "Kinase panel", "type": "biochemical", "details": "PKMYT1, 1 µM; read-out: residual enzyme activity", "outline": "as §2"}, "RIPK3": {"biological_target": "RIPK3 (Homo sapiens, UniProt Q9Y572)", "sequence (Q9Y572 whole entry, species assumed)": "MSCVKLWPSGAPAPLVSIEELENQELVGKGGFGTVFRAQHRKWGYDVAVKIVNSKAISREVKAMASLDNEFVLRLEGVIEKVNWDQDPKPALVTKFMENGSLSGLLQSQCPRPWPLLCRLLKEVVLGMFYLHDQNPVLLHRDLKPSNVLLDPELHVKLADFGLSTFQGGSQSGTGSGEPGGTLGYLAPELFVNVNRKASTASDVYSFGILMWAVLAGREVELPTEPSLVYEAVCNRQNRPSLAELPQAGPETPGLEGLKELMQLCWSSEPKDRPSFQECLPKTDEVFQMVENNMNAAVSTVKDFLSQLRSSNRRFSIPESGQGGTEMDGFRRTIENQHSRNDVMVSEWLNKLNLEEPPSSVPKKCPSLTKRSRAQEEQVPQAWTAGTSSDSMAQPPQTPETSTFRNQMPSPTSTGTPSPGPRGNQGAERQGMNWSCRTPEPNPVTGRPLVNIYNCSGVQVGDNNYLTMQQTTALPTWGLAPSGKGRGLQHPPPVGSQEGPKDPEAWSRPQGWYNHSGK", "experiment": "Kinase panel", "type": "biochemical", "details": "RIPK3, 1 µM; read-out: residual enzyme activity", "outline": "as §2"}}, "data": [{"smiles": "Cc1cn(-c2cc(C(=O)Nc3ccc(C)c(N4Cc5cnc(NC6CC6)nc5C5(CC5)C4=O)c3)cc(C(F)(F)F)c2)cn1", "note": "[Compound 8, N-(3-(2'-(cyclopropylamino)-7'-oxo-5'H-spiro[cyclopropane-1,8'-pyrido[4,3-d]pyrimidine]-6'(7'H)-yl)-4-methylphenyl)-3-(4-methyl-1H-imidazol-1-yl)-5-(trifluoromethyl)benzamide]", "values": [{"measurement": "GI50", "setting": "22Rv1", "result": "< 1000", "unit": "nM"}, {"measurement": "GI50", "setting": "C4-2B", "result": "< 1000", "unit": "nM"}, {"measurement": "remaining activity at 1 µM", "setting": "CDK4/CYCLIN D2", "result": "> 40", "unit": "%"}, {"measurement": "remaining activity at 1 µM", "setting": "CDK6/CYCLIN D2", "result": "> 40", "unit": "%"}]}, {"smiles": "Cc1ccc(Nc2ncc3c(n2)C2(CC2)C(=O)N(c2cc(NC(=O)c4cccc(C(F)(F)F)c4)ccc2C)C3)cn1", "note": "[Compound 51, N-(4-methyl-3-(2'-((6-methylpyridin-3-yl)amino)-7'-oxo-5'H-spiro[cyclopropane-1,8'-pyrido[4,3-d]pyrimidine]-6'(7'H)-yl)phenyl)-3-(trifluoromethyl)benzamide]", "values": [{"measurement": "remaining activity at 1 µM", "setting": "CDK19/cyclin C", "result": "> 40", "unit": "%"}, {"measurement": "remaining activity at 1 µM", "setting": "CDK8/cyclin C", "result": "> 40", "unit": "%"}, {"measurement": "remaining activity at 1 µM", "setting": "DLK/MAP3K12", "result": "> 40", "unit": "%"}, {"measurement": "remaining activity at 1 µM", "setting": "PKMYT1", "result": "> 40", "unit": "%"}, {"measurement": "remaining activity at 1 µM", "setting": "RIPK3", "result": "≤ 40", "unit": "%"}]}]}
